Here are results for 22 molecules from patent US7612045B2, “Compounds, compositions and methods for controlling biofilms and bacterial infections” (Sequoia Sciences, Inc., priority 2005, dated 2009).

In one assay the test system is Pseudomonas aeruginosa. In words: Microtiter plate biofilm formation assay (crystal violet), Pseudomonas aeruginosa. In kind it is cell-based. The note with it: read-out: % Biofilm Inhibition of Pseudomonas Aeruginosa. On the procedure:
In this example, a concentrated solution of each compound tested was loaded separately into three separate wells of a polystyrene microtiter plate. In addition, each assay included triplicate wells correlating to negative and positive controls. […] Next, 150 μl of sterile media was added to each well (LB media with 0.2% glucose)—followed by 50 μl of the appropriate bacterial inoculum. Thus, each well contained a final volume of approximately 200 μl (not including the volume of the concentrated inhibitor). The final concentration of each biofilm inhibitor tested in the assay was 10 μg/ml. The microtiter plates were then placed on a shaker for approximately 20 to 24 hours at room temperature. After the incubation period, the microtiter plate was removed from the shaker, rinsed, and stained. During the rinsing step, the test compound, media, and bacterial inoculum solution was drained from the plate, approximately 300 μL of 0.1M phosphate buffered saline (PBS) was added to each well, which was subsequently drained from the plate. The rinsing step removed any suspended cells from the assay. An 0.1% crystal violet stain was added to each well for approximately 20 minutes. Next, the crystal violet solution was drained from the microtiter plate. The plate was rinsed with PBS as described above four (4) times to remove any excess stain from the plate. Following the PBS rinsing steps, the plate was eluted with 250 μL/well of ethanol, which improved the detection of the stain. The plate was immediately analyzed spectrophotometrically at 540 nm using a microtiter plate reader.
The average O.D. for each test compound was compared to the average O.D. of the negative control (the positive control was employed to verify proper assay function).

For assay [1], the system named is methicillin-resistant Staphylococcus aureus. The note with it: cited from earlier work.
The test system of the next assay is P. aeruginosa. The note with it: data of the '911 patent; cited from earlier work.
Another assay has as its system E. coli. As to conditions: data of the '911 patent; cited from earlier work.
For the next assay, the system named is Escherichia coli. The assay is described as follows: Microtiter plate biofilm formation assay (crystal violet), Escherichia coli. It counts as cell-based. As to conditions: read-out: % Biofilm Inhibition of E. coli.
In another assay the test system is S. salivaris. The note with it: data of the '911 patent; cited from earlier work.
The test system of the next assay is S. aureus. As to conditions: data of the '911 patent; cited from earlier work.
The subject of a further assay is S. mutans. As to conditions: data of the '911 patent; cited from earlier work.
Assay [2] deals with E. coli clinical strain UTI89. The assay is described as follows: Biofilm formation of E. coli clinical strain UTI89 in 96 well plates (crystal violet). The note with it: Escherichia coli, 24 h, one day, read-out: inhibition of biofilm formation of the UTI89 strain as compared to the controls; for inhibition at 32 µg/mL: 32 ug/ml; for inhibition at 8 µg/mL: 8 ug/ml; for inhibition at 16 µg/mL: 16 ug/ml. In kind it is cell-based. How it is done:
Biofilm inhibition experiments were conducted using an assay adapted from the reported protocol described in Pratt and Kolter, 1998, Molecular Microbiology, 30: 285-293; Li et al., 2001, J. Bacteriol., 183: 897-908. E. coli clinical strain UTI89 was grown in LB in 96 well plates at room temperature for one day without shaking. To quantify the biofilm mass, the suspension culture was poured out and the biofilm was washed three times with water. The biofilm was stained with 0.1% crystal violet for 20 minutes. The plates were then washed three times with water. Then 95% ethanol was added to dissolve the dye at the bottom and on the wall and the OD reading at 540 nm was measured to quantify the total biofilm mass. Test compounds were added with the inoculation and biofilm mass was measured after one day as described above appropriate amounts of 100% ethanol were added to each sample to eliminate the effect of solvent. Each condition had 4 to 8 replicates on each plate and was performed over multiple days.

For the next assay, the system named is bacterial growth. In words: Bacterial growth inhibition studies. It counts as cell-based.
Where [3] appears, read: 10 μg/ml, 20 to 24 hours at room temperature, O.D. 540 nm vs negative control.
Where [4] appears, read: 10 μg/ml, same microtiter assay.

Read-outs that look alike come from different tables or passages of the source.

One may read the inhibition as the change of the read-out against control, counted positive when it falls. Regarding `CC1CCC2(C(=O)O)CCC3(C)C(=CCC4C5(C)CC(O)C(O)C(C)(C)C5CCC43C)C2C1(C)O` (centres unmarked) [Compound 192, Euscaphic Acid], in the assay on Pseudomonas aeruginosa (setting [3]), the inhibition at 10 µg/mL worked out at 32%.

Turning to `CO[C@H]1/C=C/O[C@@]2(C)Oc3c(C)c(O)c4c(O)c(c(/C=N/N5CCN(C)CC5)c(O)c4c3C2=O)NC(=O)/C(C)=C\C=C\[C@H](C)[C@H](O)[C@@H](C)[C@@H](O)[C@@H](C)[C@H](OC(C)=O)[C@@H]1C` [rifampin], the “Eradication of MRSA in a biofilm” value in [1] (biofilm, urinary catheters) is recorded as “unable to eradicate”. For the same molecule, in [1] (planktonic cells), the “Activity against MRSA planktonic, or suspended cells” value is given as “effective”.

`C[C@H]1[C@H](C)CC[C@]2(C(=O)O)CC[C@]3(C)C(=CC[C@@H]4[C@@]5(C)CC[C@H](O)C(C)(C)[C@@H]5CC[C@]43C)[C@H]12` [Compound 110, Ursolic Acid]: in the assay on P. aeruginosa, the “Growth inhibition of P. aeruginosa” value was “failed to inhibit”. Besides, the “Growth inhibition of E. coli” value with E. coli was “failed to inhibit”. In the assay with Escherichia coli (setting [4]), the inhibition at 10 µg/mL turned out to be 80%. The “Growth inhibition of S. salivaris” value with S. salivaris is listed as “completely inhibited”. Besides, in the assay on S. aureus, the “Growth inhibition of S. aureus” value was “failed to inhibit”. In addition, in the assay on S. mutans, the “Growth inhibition of S. mutans” value is “completely inhibited”.

For the molecule `C=C1CCC2(C(=O)O)CCC3(C)C(=CCC4C5(C)CCC(O)C(C)(C)C5CCC43C)C2C1C` (centres unmarked) [Compound 430, 3-hydroxy-12,20(30) ursadien-28-oic acid], the inhibition at 10 µg/mL with Escherichia coli came out at 60%.

For the molecule `C[C@@H]1[C@H]2C3=CCC4[C@@]5(C)CC[C@H](O)C(C)(C)C5CC[C@@]4(C)[C@]3(C)CC[C@@]2(C(=O)O)CC[C@]1(C)O` (some centres unmarked) [Compound 195, 20B-hydroxyursolic acid], the inhibition at 10 µg/mL in the assay with Pseudomonas aeruginosa (setting [3]) came out at 25%.

Consider `C[C@@H]1CC[C@]2(C(=O)O)CC[C@]3(C)C(=CCC4[C@@]5(C)C[C@@H](O)[C@H](O)C(C)(C)C5CC[C@]43C)[C@@H]2[C@]1(C)O` (some centres unmarked) [Compound 203, Tormentic Acid], for which the inhibition at 10 µg/mL in the assay on Pseudomonas aeruginosa (setting [3]) amounted to 43%.

As to `CO[C@H]1C[C@@]2(C)C(CC[C@]3(C)C2CC=C2C4[C@@H](C)[C@H](C)CCC4(C(=O)O)CC[C@]23C)C(C)(C)[C@@H]1O` (stereo partly drawn) [Compound 410, 2β-methoxy-3α-hydroxy-12-ursen-28-oic acid], the inhibition at 32 µg/mL in assay [2] is about 38%.

With `C[C@H]1[C@H](CO)CC[C@]2(C(=O)O)CC[C@]3(C)C(=CCC4[C@@]5(C)CC[C@H](O)C(C)(C)C5CC[C@]43C)[C@H]12` (some centres unmarked) [Compound 99, 30-hydroxyursolic acid], the inhibition at 10 µg/mL in the assay with Pseudomonas aeruginosa (setting [3]) turned out to be 30%.

On to `C[C@@H]1[C@H]2C3=CC[C@@H]4[C@@]5(C)CC[C@H](OC(=O)/C=C\c6ccc(O)cc6)C(C)(C)[C@@H]5CC[C@@]4(C)[C@]3(C)CC[C@@]2(C(=O)O)CC[C@]1(C)O` (relative stereo) [Compound 188, 3-[4-Hydroxycinnamoyl(cis-)], 20-hydroxy-ursolic acid], for which the inhibition at 10 µg/mL with Pseudomonas aeruginosa (setting [3]) worked out at 62%.

`CC1(C)CC[C@]2(C(=O)O)CC[C@]3(C)C(=CC[C@@H]4[C@@]5(C)CC[C@H](O)C(C)(C)[C@@H]5CC[C@]43C)[C@@H]2C1` [Compound 225, Oleanolic Acid]: the “Growth inhibition of P. aeruginosa” value in the assay with P. aeruginosa is “failed to inhibit”. In the assay with E. coli, the “Growth inhibition of E. coli” value is “failed to inhibit”. For the same molecule, the inhibition at 10 µg/mL in the assay on Escherichia coli (setting [4]) and in the assay on Pseudomonas aeruginosa (setting [3]) was 35% in each case. Moreover, in the assay with S. salivaris, the “Growth inhibition of S. salivaris” value is “incomplete inhibition”. Also, the “Growth inhibition of S. aureus” value with S. aureus was “failed to inhibit”. Also, the “Growth inhibition of S. mutans” value with S. mutans was “incomplete inhibition”.

For the molecule `CC1(C)CC[C@]2(C(=O)O)CCC3(C)C(=CCC4C5(C)C[C@@H](O)[C@H](O)C(C)(C)C5CCC43C)[C@@H]2C1` (some centres unmarked) [Compound 107, 2-hydroxyoleanic acid], the inhibition at 10 µg/mL in the assay on Pseudomonas aeruginosa is 46%.

With `C[C@@H]1CC[C@]2(C(=O)O)CCC3(C)C(=CCC4C5(C)C[C@@H](O)[C@H](O)C(C)(C)C5CCC43C)C2[C@H]1C` (stereo partly drawn) [Compound 108, 2α,3β-dihydroxy-12-ursen-28-oic acid], the inhibition at 20 µg/mL in [2] (20 ug/ml) was about 85%. Moreover, the values for the inhibition at 10 µg/mL with Escherichia coli (setting [4]) and in the assay with Pseudomonas aeruginosa (setting [3]) were 74% and 52%, respectively.

Take `CC1(C)CC[C@]2(C(=O)O)[C@H](O)C[C@]3(C)C(=CC[C@@H]4[C@@]5(C)CC[C@H](O)C(C)(C)[C@@H]5CC[C@]43C)[C@@H]2C1` [Compound 455, 3β,16α-dihydroxyolean-12-en-28-oic acid]: in [2], the inhibition at 8 µg/mL was about 27%, the inhibition at 16 µg/mL was about 50% and the inhibition at 32 µg/mL was about 80%.

For the molecule `C[C@@H]1CC[C@]2(C(=O)O)CC[C@]3(C)C(=CCC4[C@@]5(C)C[C@@H](O)[C@@H](O)[C@](C)(CO)C5CC[C@]43C)C2[C@H]1C` (stereo partly drawn) [Compound 457, 2α,3α,24-trihydroxy-12-ursen-28-oic acid], in [2], the inhibition at 8 µg/mL was about 50%, the inhibition at 16 µg/mL was about 53% and the inhibition at 32 µg/mL is about 80%.

For the molecule `CC1(C)CC[C@@]2(C(=O)O)C(O)C[C@]3(C)C(=CCC4[C@@]5(C)CC[C@H](O)[C@@](C)(CO)C5CC[C@]43C)C2C1` (some centres unmarked) [Compound 323, Caulophyllogenin], the inhibition at 10 µg/mL in the assay on Escherichia coli (setting [4]) amounted to 35%.

Take `C[C@@H]1CC[C@]2(C(=O)O)CC[C@]3(C)C(=CCC4[C@@]5(C)CC[C@H](OC(=O)OC(C)(C)C)C(C)(C)C5CC[C@]43C)C2[C@H]1C` (stereo partly drawn) [3β-O-tert-butyloxycarbonyl-ursolic acid]: the inhibition at 32 µg/mL in assay [2] is about 46%.

For the molecule `C[C@@H]1CCC2(C(=O)O)CC[C@]3(C)C(=CCC4[C@@]5(C)C[C@@H](O)[C@H](O)[C@@](C)(CO)C5CC[C@]43C)C2[C@H]1C` (some centres unmarked) [Compound 255, Asiatic Acid], in the assay with Escherichia coli (setting [4]), the inhibition at 10 µg/mL stood at 75%. Moreover, in the assay with bacterial growth, the direct anti-bacterial activity entry is given as “do not display direct anti-bacterial activity”.

Consider `C[C@H]1[C@H](C)CC[C@]2(C(=O)O)CC[C@]3(C)C(=CC[C@@H]4[C@@]5(C)C[C@@H](O)[C@H](O)[C@@](C)(CO)[C@@H]5[C@H](O)C[C@]43C)[C@H]12` [Compound 314, Madecassic Acid], for which the direct anti-bacterial activity result with bacterial growth is reported as “do not display direct anti-bacterial activity”.

`C[C@@H]1CC[C@]2(C(=O)O)CCC3(C)C(=CCC4C5(C)C[C@H](O)[C@@H](O)C(C)(C)C5CCC43C)C2[C@H]1C` (stereo partly drawn) [Compound 431, 2β,3α-dihydroxy-12-ursen-28-oic acid]: in [2], the inhibition at 32 µg/mL was about 62%.

Regarding `CO[C@H]1C[C@@]2(C)C(CC[C@]3(C)C2CC=C2C4[C@@H](C)[C@H](C)CC[C@]4(C(=O)O)CC[C@]23C)C(C)(C)[C@@H]1OC(=O)/C=C/c1ccccc1` (stereo partly drawn) [2β-methoxy-3α-cinnamoyl-12-ursen-28-oic acid], in assay [2], the inhibition at 32 µg/mL was about 40%.

Regarding `C[C@H]1[C@H](C)CC[C@]2(C(=O)O)CC[C@]3(C)C(=CCC4[C@@]5(C)C[C@@H](O)[C@H](OC(=O)/C=C/c6ccc(O)cc6)C(C)(C)C5CC[C@]43C)[C@H]12` (stereo partly drawn) [Compound 189, 3-[4-hydroxycinnamoyl(trans-)]-2-hydroxyursolic acid], in the assay with Pseudomonas aeruginosa (setting [3]), the inhibition at 10 µg/mL was determined as 35%.

Take `C[C@@H]1CC[C@]2(C(=O)O)CC[C@]3(C)C(=CCC4[C@]5(C)C(CC[C@]43C)[C@@](C)(CO)[C@H](O)[C@H](O)[C@H]5O)C2[C@H]1C` (stereo partly drawn) [Compound 458, 1β,2α,3α,24-tetrahydroxy-12-ursen-28-oic acid]: the inhibition at 32 µg/mL in [2] is about 45%.
